Assay results published in patent US6800651B2 (Eli Lilly and Company, priority 2000, dated 2004).
Like-named read-outs stand apart in the source and are kept apart here. Marks after values point to notes of the source that are not given here.

Tests used:
[1] = system: Harlan Sprague-Dawley rats; test: Animal model of dural protein extravasation (trigeminal ganglion stimulation); format: in vivo; conditions: rat, ratio stimulated/unstimulated side of dura
Description: Harlan Sprague-Dawley rats (250-350 g) were anesthetized with sodium pentobarbital intraperitoneally (65 mg/kg) and placed in a stereotaxic frame (David Kopf Instruments) with the incisor bar set at −3.5 mm. Following a midline sagital scalp incision, two pairs of bilateral holes were drilled through the skull (6 mm posterially, 2.0 and 4.0 mm laterally, all coordinates referenced to bregma). Pairs of stainless steel stimulating electrodes, insulated except at the tips (Rhodes Medical Systems, Inc.), were lowered through the holes in both hemispheres to a depth of 9 mm. The femoral vein was exposed and a dose of the test compound was injected intravenously (i.v.) at a dosing volume of 1 ml/kg or, in the alternative, test compound was administered orally (p.o.) via gavage at a volume of 2 ml/kg. Approximately 8 minutes post i.v. injection, a 50 mg/kg dose of Evans Blue, a fluorescent dye, was also injected intravenously. The Evans Blue complexed with proteins in the blood and functioned as a marker for protein extravasation. […] Fifteen minutes following stimulation, the animals were killed and exsanguinated with 40 mL of saline. The top of the skull was removed to facilitate the collection of the dural membranes. The membrane samples were removed from both hemispheres, rinsed with water, and spread flat on microscopic slides. […] A fluorescence microscope (Zeiss) equipped with a grating monochromator and a spectrophotometer was used to quantify the amount of Evans Blue dye in each sample. An excitation wavelength of approximately 535 nm was utilized and the emission intensity at 600 nm was determined. The microscope was equipped with a motorized stage and also interfaced with a personal computer. This facilitated the computer-controlled movement of the stage with fluorescence measurements at 25 points ([…]) on each dural sample. The mean and standard deviation of the measurements were determined by the computer. The extravasation induced by the electrical stimulation of the trigeminal ganglion was an ipsilateral effect (i.e. occurs only on the side of the dura in which the trigeminal ganglion was stimulated). This allows the other (unstimulated) half of the dura to be used as a control. The ratio of the amount of extravasation in the dura from the stimulated side, over the amount of extravasation in the unstimulated side, was calculated.

[2] = system: Male Sprague-Dawley rats; test: Fear potentiated startle paradigm; format: in vivo; conditions: rat
Description: Male Sprague-Dawley rats weighing 325-400 g were purchased from Harlan Sprague-Dawley, Inc. (Cumberland, Ind.) and given a one week acclimation period before testing. Rats were individually housed with food and water ad libitum in an animal room on a 12-hour light/dark cycle with lights on between 6:00 A.M. and 6:00 P.M. […] Control rats were given the respective vehicle. The fear potentiated startle paradigm is conducted over three consecutive days. All three days begin with a 5-minute adaptation period before the trial starts. On day one (baseline startle) after the adaptation period, the animal receives 30 trials of 120 dB auditory noise. The mean startle amplitude (Vmax) is used to assign animals to groups with similar means before conditioning begins. Day two consists of conditioning the animals. Each animal receives 0.5 mA of shock for 500 msec preceded by a 5 second presentation of light which remains on for the duration of the shock. Ten presentations of the light and shock are administered. Day three is the testing trial where drug administration occurs prior to testing. Twenty-four hours after conditioning, startle testing sessions are conducted. Ten trials of acoustic startle (120 dB), non-light paired, are presented at the beginning of the session. This is followed by 20 random trials of the noise alone and 20 random trials of noise preceded by light. […] Data is presented as the difference between light+noise and noise-alone. Differences in startle response amplitudes were analyzed by JMP statistical software using a One-way Anova (analysis of variance, t-test). Group differences were considered to be significant at p<0.05. In the experiment shown below the compound of Example 16 was given i.p. 30 minutes prior to testing.

[3] = target: T1, mGlu2 receptor (Homo sapiens, UniProt Q14416); test: Potentiation of glutamate-induced increase in intracellular calcium with a mGluR2 expressing cell line (FLIPR); format: cell-based; design: expressed in transfected cells; host or cells: RGT cells (co-transfected with GLAST), stably transfected with Galpha15; conditions: read-out: % Maximal Response (mean ± SD, n=2)
Description: Potentiation of Glutamate-Induced Increase in Intracellular Calcium with a mGluR2 Expressing Cell Line.
Cell lines expressing human mGlu2 receptors were derived as previously described (Desai, Burnett, Mayne, Schoepp, Mol. Pharmacol. 48, 648-657, 1995) and cultured in DMEM with 5% dialyzed fetal bovine serum, 1 mM glutamine, 1 mM sodium pyruvate, 50 μg/ml Geneticin G418, and 0.2 mg/ml hygromycin B. Confluent cultures were passaged weekly. […] The RGT cell line expressing the mGluR2 receptors was stably transfected with the promiscuous G-protein, Galpha15 to change the signaling pathway to the mGlu2 receptor to one that could be easily measured through release of intracellular calcium. Thus, intracellular calcium levels were monitored before and after the addition of drugs on a Fluorometric Imaging Plate Reader (i.e. FLIPR, Molecular Devices). The following buffer was used throughout as an assay buffer: 10 mM KCl, 138 mM NaCl, 5 mM Ca Cl2, 1 mM MgCl2, 4 mM NaH2PO4, 10 mM Glucose, 10 mM HEPES, pH 7.4. Cells that had been plated 48 h prior at a density of 30-40,000 cells per well in a 96-well plate were loaded with a calcium-sensitive dye for 90 min at 25° C. Fluo-3 (2 mM in DMSO, Molecular Probes) were mixed with a equal volume of 10% pluronic acid in DMSO, and diluted to 8 μM into the buffer described above containing 10% fetal bovine serum to make the loading buffer. Following loading of the cells, the loading buffer was removed and replaced with assay buffer prior to drug addition and monitoring on the FLIPR.

[4] = target: T1, mGlu2 receptor; test: [3H]-2S-2-Amino-2-(1S,2S-2-carboxycyclopropan-1-yl)-3-(xanth-9-yl) propionic acid receptor binding (displacement), membranes of mGlu2 receptor expressing RGT cells; design: expressed in transfected cells; host or cells: RGT cells (co-transfected with the rat glutamate/aspartate transporter GLAST); washed membranes; conditions: displacement of 1 nM [3H]-2S-2-amino-2-(1S,2S-2-carboxycyclopropan-1-yl)-3-(xanth-9-yl)propionic acid; homogenates of mGlu2 receptor expressing cell line
Description: Membranes from mGlu2 receptor expressing RGT cells were prepared by harvesting adherent cells from confluent T-150 flasks with a cell scraper. Cells and media were then placed in 50 ml conical tubes and centrifuged at 4° C. at 1000 g for 5 minutes. The supernatant was removed and the pellet was frozen at −10° C. until use. Washed cell membranes were prepared by adding 20 ml of 10 mM potassium phosphate buffer pH 7.6 @ 5° C.+100 mM potassium bromide and homogenizing with an Ultra-Turrax tissuemizer for 15 seconds at 90% output. The homogenate was centrifuged at 48,000×g for 10 minutes at 5° C. This last step was repeated two times, and the final pellet was resuspended in 10 ml of the same buffer and reserved on ice until initiating the binding assay.
The incubation was initiated by the addition of the membrane suspension, (about 15 μg membrane protein), and allowed to continue on ice for 30 min. Incubation was terminated by rapid filtration with a Brandel cell harvester through glass fiber Whatman GF/B filters pre-wet with the same potassium phosphate buffer assay buffer (at 4° C.). The filters were washed five times with 1 ml of buffer. Filter sections were transferred to minivials and 5 ml of Fisher Scientific ScintiSafe liquid scintillation cocktail was added to each vial. Vials were allowed to set for several hours prior to counting on a Beckman LS6000 liquid scintillation counter.

T1 sequence (Q14416 19-872): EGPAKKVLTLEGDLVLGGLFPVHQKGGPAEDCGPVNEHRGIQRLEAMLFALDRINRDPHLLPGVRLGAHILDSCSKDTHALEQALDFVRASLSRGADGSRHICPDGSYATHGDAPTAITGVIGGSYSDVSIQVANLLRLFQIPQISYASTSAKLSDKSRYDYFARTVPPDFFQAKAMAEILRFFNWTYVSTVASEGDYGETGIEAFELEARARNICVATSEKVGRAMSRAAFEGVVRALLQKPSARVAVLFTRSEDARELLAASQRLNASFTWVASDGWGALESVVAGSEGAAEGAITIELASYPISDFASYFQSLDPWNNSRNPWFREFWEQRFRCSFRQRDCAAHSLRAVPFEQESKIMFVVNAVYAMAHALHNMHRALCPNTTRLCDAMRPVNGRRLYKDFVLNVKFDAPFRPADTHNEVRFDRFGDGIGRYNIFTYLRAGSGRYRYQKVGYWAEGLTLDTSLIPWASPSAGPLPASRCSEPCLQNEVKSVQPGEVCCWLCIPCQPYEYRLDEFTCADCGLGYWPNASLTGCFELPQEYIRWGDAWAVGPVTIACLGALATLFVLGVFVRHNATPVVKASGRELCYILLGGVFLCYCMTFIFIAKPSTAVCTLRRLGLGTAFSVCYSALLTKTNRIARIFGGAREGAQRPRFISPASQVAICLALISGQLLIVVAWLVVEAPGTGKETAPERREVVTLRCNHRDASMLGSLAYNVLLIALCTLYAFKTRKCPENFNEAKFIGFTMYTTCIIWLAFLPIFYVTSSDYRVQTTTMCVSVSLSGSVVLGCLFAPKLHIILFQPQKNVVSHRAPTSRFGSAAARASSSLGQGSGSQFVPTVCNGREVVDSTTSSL

With `COc1ccccc1Oc1ccc(N(Cc2cccnc2)S(=O)(=O)CC(F)(F)F)cc1` [Example 16, N-(4-(2-Methoxyphenoxy)phenyl)-N-(2,2,2-trifluoroethylsulfonyl)pyrid-3-ylmethylamine] the “Extrav. Ratio ± s.e.m.” value ([1]; 10 pg/kg i.v.) was 1.87 ± 0.07, the “Extrav. Ratio ± s.e.m.” value ([1]; 100 pg/kg i.v.) was 1.37 ± 0.07 and the “Extrav. Ratio ± s.e.m.” value ([1]; 1 ng/kg i.v.) was 1.04 ± 0.05. For the same compound, the “Extrav. Ratio ± s.e.m.” value ([1]; 100 ng/kg i.v.) was 0.99 ± 0.004, the “Difference in Startle Amplitude (Vmax) + S.E.” value (from here on “Difference in Startle Amplitude”) ([2]; Exp. 1, 0.03 mg/kg i.p. 30 minutes prior to testing, light+noise minus noise-alone) was 108 + 41 and the “Difference in Startle Amplitude” value ([2]; Exp. 1, 0.3 mg/kg i.p. 30 minutes prior to testing) was 154 + 38. For the same compound, the “Difference in Startle Amplitude” value ([2]; Exp. 1, 3.0 mg/kg i.p. 30 minutes prior to testing) was 21 + 24*, the “Difference in Startle Amplitude” value ([2]; Exp. 2, 1.0 mg/kg i.p. 30 minutes prior to testing) was 120 + 87* and the “Difference in Startle Amplitude” value ([2]; Exp. 2, 3.0 mg/kg i.p. 30 minutes prior to testing) was 148 + 86*. For the same compound, the “Difference in Startle Amplitude” value ([2]; Exp. 2, 10.0 mg/kg i.p. 30 minutes prior to testing) was 105 + 91*, the Emax ([3]; 8 nM Glutamate + 1 μM compound) was 2.8 ± 1.9% and the Emax ([3]; 24 nM Glutamate + 1 μM compound) was 0.1 ± 0.8%. The Emax ([3]; 80 nM Glutamate + 1 μM compound) was 0.3 ± 1.1%, the Emax ([3]; 240 nM Glutamate + 1 μM compound) was 17.4 ± 2.8% and the Emax ([3]; 800 nM Glutamate + 1 μM compound) was 62.9 ± 0.1%. For the same compound, the Emax at 1 µM ([3]; 1 μM compound, Buffer (no agonist), glutamate series 24 μM to 8 nM) was 1.6 ± 1%, the Emax ([3]; 2.4 μM Glutamate + 1 μM compound) was 92.5 ± 4.4% and the Emax ([3]; 8 μM Glutamate + 1 μM compound) was 98.4 ± 6.4%. It also gave an Emax ([3]; 24 μM Glutamate + 1 μM compound) of 95.4 ± 2.4% and a Ki [4] of over 100 µM.
